The NIST ThermoML archive (doi:10.1016/j.tca.2018.10.018)

Key:
[1] = xn = mol fraction of the nth substance listed; details: Liquid, x2 = 0; for viscosity: Capillary tube (Ostwald / Ubbelohde) method; for mass density: Siemens Coriolis flowmeter
[2] = Liquid; for viscosity: Capillary tube (Ostwald / Ubbelohde) method; for mass density: Siemens Coriolis flowmeter

CCCCCCC [heptane] + CCCCCCCCCC(=O)OC
[1]
Details | mass density, 298.15 K [kg/m3] | mass density, 308.15 K [kg/m3] | mass density, 318.15 K [kg/m3] | viscosity, 298.15 K [mPa·s] | viscosity, 308.15 K [mPa·s] | viscosity, 318.15 K [mPa·s]
100 kPa | 680 | 670 | 662 | 0.404 | 0.367 | 0.33
3000 kPa | 683 | 674 | 666 | 0.415 | 0.371 | 0.339
6000 kPa | 686 | 677 | 669 | 0.42 | 0.385 | 0.347
9000 kPa | 689 | 680 | 672 | 0.432 | 0.396 | 0.359
12000 kPa | 691 | 683 | 675 | 0.446 | 0.404 | 0.369
15000 kPa | 694 | 685 | 678 | 0.454 | 0.411 | 0.374

CCCCCCC [heptane]
[2]
Details | mass density, 298.15 K [kg/m3] | mass density, 308.15 K [kg/m3] | mass density, 318.15 K [kg/m3] | viscosity, 298.15 K [mPa·s] | viscosity, 308.15 K [mPa·s] | viscosity, 318.15 K [mPa·s]
100 kPa | 680 | 670 | 662 | 0.404 | 0.367 | 0.33
3000 kPa | 683 | 674 | 666 | 0.415 | 0.371 | 0.339
6000 kPa | 686 | 677 | 669 | 0.42 | 0.385 | 0.347
9000 kPa | 689 | 680 | 672 | 0.432 | 0.396 | 0.359
12000 kPa | 691 | 683 | 675 | 0.446 | 0.404 | 0.369
15000 kPa | 694 | 685 | 678 | 0.454 | 0.411 | 0.374

CCCCCCCCCC(=O)OC [methyl decanoate]
[2]
Details | mass density, 298.15 K [kg/m3] | mass density, 308.15 K [kg/m3] | mass density, 318.15 K [kg/m3] | viscosity, 298.15 K [mPa·s] | viscosity, 308.15 K [mPa·s] | viscosity, 318.15 K [mPa·s]
100 kPa | 868 | 860 | 853 | 1.934 | 1.628 | 1.38
3000 kPa | 870 | – | 854 | 1.992 | – | 1.417
3010 kPa | – | 862 | – | – | 1.675 | –
6000 kPa | 872 | 864 | 856 | 2.058 | 1.727 | 1.462
9000 kPa | 874 | 866 | 859 | 2.123 | 1.779 | 1.491
12000 kPa | 877 | 869 | 861 | 2.209 | 1.835 | 1.534
15000 kPa | 878 | 871 | 863 | 2.272 | 1.888 | 1.578
